Test results as given in patent US11725000B2, “Apoptosis inhibitors” (National Institute of Biological Sciences, Beijing, priority 2017, dated 2023).

System: U2OS_Bim cells
Experiment: Apoptosis inhibition assay (Bim-induced apoptosis, cell viability by ATP level)
Assay type: cell-based
Conditions: U2OS_Bim cells; estimated (*Est.) / preliminary results; numbering of Tables 4a/4b; read-out: EC50
In short: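 Apoptosis was triggered by doxycycline (0.1 μg/mL) induction of Bim, one hour after compound addition to U2OS_Bim cells. Survival was measured after 24 h from cellular ATP (CellTiter-Glo), relative to DMSO, with zVAD at 20 μM as rescue control. Data are duplicate means, some estimated from preliminary results.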

SMILES | EC50 [nM]
Cc1cc(-c2cc(F)c(=O)n(Cc3ccc4c(c3)OCO4)c2)nc(S(=O)(=O)CCC(OCc2ccccc2F)C2CCCCN2C)n1 (centres unmarked) [Compound 398] | 1 to 1000
Cc1cc(-c2cc(F)c(=O)n(Cc3ccc4c(c3)OCO4)c2)nc(S(=O)(=O)CCC(OCC2COC2)c2ccccc2)n1 (centres unmarked) [Compound 417] | 1 to 1000
Cc1cc(-c2cc(F)c(=O)n(Cc3ccc4nnn(C)c4c3)c2)nc(S(=O)(=O)CCCn2c(=O)oc3ccccc32)n1 [Compound 367] | 1 to 1000
Cc1cc(-c2cc(F)c(=O)n(Cc3ccc4c(c3)OCO4)c2)nc(S(=O)(=O)CCC(OCC2CCOCC2)c2ccccc2)n1 (centres unmarked) [Compound 410] | 1 to 1000
Cc1cc(-c2cc(F)c(=O)n(Cc3ccc4c(c3)OCO4)c2)nc(S(=O)(=O)CCC(OCc2cncn2C)c2ccccc2)n1 (centres unmarked) [Compound 404] | 1 to 1000
Cc1cc(-c2cc(F)c(=O)n(Cc3ccc4c(c3)OCO4)c2)nc(S(=O)(=O)CCC(OCC2CO2)c2ccccc2)n1 (centres unmarked) [Compound 419] | 1 to 1000
Cc1cc(-c2cc(F)c(=O)n(Cc3ccc4c(c3)OCO4)c2)nc(S(=O)(=O)CCC(OCC2CCCCC2)c2ccccc2)n1 (centres unmarked) [Compound 409] | 1 to 1000

Same assay, conditions: U2OS_Bim cells; estimated based on preliminary results; numbering of Tables 4a/4b; read-out: EC50

SMILES | EC50 [nM]
COc1ccc(Cn2cc(-c3cc(C(=O)c4ccccc4)nc(S(C)(=O)=O)n3)ccc2=O)cc1OC [Compound 271, 5-(6-benzoyl-2-(methylsulfonyl)pyrimidin-4-yl)-1-(3,4-dimethoxybenzyl)pyridin-2 (1H)-one] | < 10000
CNc1cc(Cn2cc(-c3cc(C(F)(F)F)nc([S+](C)[O-])n3)ccc2=O)ccc1OC (centres unmarked) [Compound 239] | < 10000
CS(=O)(=O)c1nc(-c2ccc(=O)n(Cc3ccc4scnc4c3)c2)cc(C(F)(F)F)n1 [Compound 226] | < 10000
C[S+]([O-])c1nc(-c2ccc(=O)n(Cn3ccc4ccccc43)c2)cc(C(F)(F)F)n1 (centres unmarked) [Compound 257] | < 10000
COc1ccc(Cn2cc(-c3cc(-c4cncs4)nc(S(C)(=O)=O)n3)ccc2=O)cc1OC [Compound 215] | < 10000
CCc1ccc(Cn2cc(-c3cc(C(F)(F)F)nc(S(C)(=O)=O)n3)ccc2=O)cc1OC [Compound 264] | < 10000
COc1ccc(Cn2cc(-c3cc(-n4cccc4)nc([S+](C)[O-])n3)ccc2=O)cc1OC (centres unmarked) [Compound 218] | < 10000
C[S+]([O-])c1nc(-c2ccc(=O)n(Cc3ccc4ccncc4c3)c2)cc(C(F)(F)F)n1 (centres unmarked) [Compound 251] | < 10000
COc1ccc(OC2CCCN(c3cc(C(F)(F)F)nc(S(C)(=O)=O)n3)C2)cc1OC (centres unmarked) [Compound 274, 4-(3-(3,4-dimethoxyphenoxy)piperidin-1-yl)-2-(methylsulfonyl)-6-(trifluoromethyl)pyrimidine] | < 100000

Same assay, conditions: U2OS_Bim cells; means of duplicates; numbering of Tables 4a/4b; read-out: EC50

SMILES | EC50 [nM]
COc1ccc(Cn2cccc2-c2cc(C(F)(F)F)nc([S+](C)[O-])n2)cc1OC (centres unmarked) [Compound 86, 4-(1-(3,4-dimethoxybenzyl)-1H-pyrrol-2-yl)-2-(methylsulfinyl)-6-(trifluoromethyl)pyrimidine] | < 100000
CS(=O)(=O)c1nc(-c2cccs2)cc(-c2cccs2)n1 [Compound 37, 2-(methylsulfonyl)-4,6-di(thiophen-2-yl)pyrimidine] | 1000 to 10000
CS(=O)(=O)c1nc(-c2ccc(=O)n(Cc3ccc4ccccc4c3)c2)cc(C(F)(F)F)n1 [Compound 134, 5-(2-(methylsulfonyl)-6-(trifluoromethyl)pyrimidin-4-yl)-1-(naphthalen-2-ylmethyl)pyridin-2 (1H)-one] | 1000 to 10000
COc1ccc(Cn2cc(-c3cc(C(C)=O)nc(S(C)(=O)=O)n3)ccc2=O)cc1OC [Compound 163, 5-(6-acetyl-2-(methylsulfonyl)pyrimidin-4-yl)-1-(3,4-dimethoxybenzyl)pyridin-2 (1H)-one] | 1 to 1000
COc1cc(Cl)c(Cn2cc(-c3cc(C(F)(F)F)nc(S(=O)(=O)CCC(=O)N4CCCCC4)n3)ccc2=O)cc1OC [Compound 154, 1-(2-chloro-4,5-dimethoxybenzyl)-5-(2-((3-oxo-3-(piperidin-1-yl)propyl)sulfonyl)-6-(trifluoromethyl)pyrimidin-4-yl)pyridin-2 (1H)-one] | 1 to 1000
COc1ccc(Cn2ccc(-c3cc(C(F)(F)F)nc(S(C)(=O)=O)n3)c2)cc1 [Compound 91, 4-(1-(4-methoxybenzyl)-1H-pyrrol-3-yl)-2-(methylsulfonyl)-6-(trifluoromethyl)pyrimidine] | < 100000
CS(=O)(=O)c1nc(-c2ccc(=O)n(Cc3ccc4c(c3)OCO4)c2)cc(C(F)(F)F)n1 [Compound 136, 1-(benzo[d][1,3]dioxol-5-ylmethyl)-5-(2-(methylsulfonyl)-6-(trifluoromethyl)pyrimidin-4-yl)pyridin-2 (1H)-one] | 1 to 1000
CS(=O)(=O)c1nc(-c2ccccc2C(=O)O)cc(C(F)(F)F)n1 [Compound 63, 2-(2-(methylsulfonyl)-6-(trifluoromethyl)pyrimidin-4-yl)benzoic acid] | < 100000
COc1ccc(Cn2cc(-c3cc(C(F)(F)F)nc(S(=O)(=O)CCCC(=O)N4CCCCC4)n3)ccc2=O)cc1OC [Compound 155, 1-(3,4-dimethoxybenzyl)-5-(2-((4-oxo-4-(piperidin-1-yl)butyl)sulfonyl)-6-(trifluoromethyl)pyrimidin-4-yl)pyridin-2 (1H)-one] | 1 to 1000
COc1ccccc1-c1cc(C(F)(F)F)nc(S(C)(=O)=O)n1 [Compound 51, 4-(2-methoxyphenyl)-2-(methylsulfonyl)-6-(trifluoromethyl)pyrimidine] | 1000 to 10000
Cc1ccc(-c2cc(C(F)(F)F)nc(S(C)(=O)=O)n2)cc1 [Compound 48, 2-(methylsulfonyl)-4-(p-tolyl)-6-(trifluoromethyl)pyrimidine] | < 100000
CNC(=O)CCC[S+]([O-])c1nc(-c2ccc(=O)n(Cc3ccc(OC)c(OC)c3)c2)cc(C(F)F)n1 (centres unmarked) [Compound 177, 4-((4-(difluoromethyl)-6-(1-(3,4-dimethoxybenzyl)-6-oxo-1,6-dihydropyridin-3-yl)pyrimidin-2-yl)sulfinyl)-N-methylbutanamide] | < 100000
CS(=O)(=O)c1nc(-c2ccc(=O)n(Cc3cccc4ccccc34)c2)cc(C(F)(F)F)n1 [Compound 133, 5-(2-(methylsulfonyl)-6-(trifluoromethyl)pyrimidin-4-yl)-1-(naphthalen-1-ylmethyl)pyridin-2 (1H)-one] | 1000 to 10000
CCOc1cccc(Cn2cc(-c3cc(C)nc([S+]([O-])CCC(OCc4ccc(F)cc4F)c4ccccc4)n3)cc(F)c2=O)c1 (centres unmarked) [Compound 310, 5-(2-((3-((2,4-difluorobenzyl)oxy)-3-phenylpropyl)sulfinyl)-6-methylpyrimidin-4-yl)-1-(3-ethoxybenzyl)-3-fluoropyridin-2 (1H)-one] | 1000 to 10000
Cc1cc(-c2cc(F)c(=O)n(Cc3ccc4c(c3)OCO4)c2)nc(S(=O)(=O)CCC(OCc2ccccc2F)c2ccccc2)n1 (centres unmarked) [Compound 318, 1-(benzo[d][1,3]dioxol-5-ylmethyl)-3-fluoro-5-(2-(3-(2-fluorobenzyloxy)-3-phenylpropylsulfonyl)-6-methylpyrimidin-4-yl)pyridin-2 (1H)-one] | 1 to 1000
Cc1cc(-c2cc(F)c(=O)n(CC3CCCCC3)c2)nc(S(=O)(=O)CCC(OCc2ccc(F)cc2F)c2ccccc2)n1 (centres unmarked) [Compound 309, 1-(cyclohexylmethyl)-5-(2-(3-(2,4-difluorobenzyloxy)-3-phenylpropylsulfonyl)-6-methylpyrimidin-4-yl)-3-fluoropyridin-2 (1H)-one] | 1000 to 10000
